Test results reported in patent publication US8859559B2, “Substituted pyrazines and their use in the treatment of disease” (Boehringer Ingelheim International GmbH, priority 2011, dated 2014).

Molecular target: T1, ENaC (Epithelial Sodium Channel) (Mus musculus, UniProt Q61180+Q9WU38+Q9WU39)
T1 construct: Mouse kidney M-1 cells were cultivated in DMEM; endogenous in cells; host or cells: Mouse kidney M-1 cells (dexamethasone-treated, on transwell filters)
T1 sequence (Q61180 1-699): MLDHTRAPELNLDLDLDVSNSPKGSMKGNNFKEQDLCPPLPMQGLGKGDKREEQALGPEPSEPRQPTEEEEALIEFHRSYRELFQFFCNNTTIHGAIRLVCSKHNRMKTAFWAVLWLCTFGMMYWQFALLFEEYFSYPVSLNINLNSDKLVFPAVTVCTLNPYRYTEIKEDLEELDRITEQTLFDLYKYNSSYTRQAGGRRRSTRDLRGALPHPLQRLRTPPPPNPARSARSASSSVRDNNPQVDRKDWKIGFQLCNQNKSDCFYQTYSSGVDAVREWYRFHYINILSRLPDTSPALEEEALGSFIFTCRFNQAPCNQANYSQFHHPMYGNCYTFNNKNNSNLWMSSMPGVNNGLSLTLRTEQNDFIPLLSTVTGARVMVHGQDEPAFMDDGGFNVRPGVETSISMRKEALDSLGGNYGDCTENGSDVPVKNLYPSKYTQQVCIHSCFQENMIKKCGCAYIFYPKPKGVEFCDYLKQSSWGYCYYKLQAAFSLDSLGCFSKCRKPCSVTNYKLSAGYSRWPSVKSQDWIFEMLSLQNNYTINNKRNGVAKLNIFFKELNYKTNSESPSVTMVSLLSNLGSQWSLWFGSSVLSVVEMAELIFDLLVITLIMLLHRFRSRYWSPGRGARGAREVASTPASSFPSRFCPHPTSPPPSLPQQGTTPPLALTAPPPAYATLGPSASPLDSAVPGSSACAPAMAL
T1 sequence (Q9WU38 1-638): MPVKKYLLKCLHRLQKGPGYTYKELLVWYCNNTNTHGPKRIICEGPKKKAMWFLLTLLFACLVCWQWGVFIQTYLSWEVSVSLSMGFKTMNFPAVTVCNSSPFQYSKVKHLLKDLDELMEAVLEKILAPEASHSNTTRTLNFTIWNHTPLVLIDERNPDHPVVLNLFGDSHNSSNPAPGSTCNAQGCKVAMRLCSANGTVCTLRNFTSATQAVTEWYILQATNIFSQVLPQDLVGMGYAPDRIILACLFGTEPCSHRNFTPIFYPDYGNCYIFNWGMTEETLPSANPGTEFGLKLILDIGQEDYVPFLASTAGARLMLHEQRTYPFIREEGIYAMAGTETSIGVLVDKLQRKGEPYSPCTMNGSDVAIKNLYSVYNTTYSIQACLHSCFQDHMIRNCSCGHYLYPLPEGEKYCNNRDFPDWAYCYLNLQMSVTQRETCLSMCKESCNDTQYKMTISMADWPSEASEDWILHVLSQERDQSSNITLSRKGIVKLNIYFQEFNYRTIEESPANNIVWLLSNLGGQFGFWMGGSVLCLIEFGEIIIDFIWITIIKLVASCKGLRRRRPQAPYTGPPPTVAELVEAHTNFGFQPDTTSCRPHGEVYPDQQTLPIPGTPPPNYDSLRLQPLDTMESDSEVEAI
T1 sequence (Q9WU39 1-655): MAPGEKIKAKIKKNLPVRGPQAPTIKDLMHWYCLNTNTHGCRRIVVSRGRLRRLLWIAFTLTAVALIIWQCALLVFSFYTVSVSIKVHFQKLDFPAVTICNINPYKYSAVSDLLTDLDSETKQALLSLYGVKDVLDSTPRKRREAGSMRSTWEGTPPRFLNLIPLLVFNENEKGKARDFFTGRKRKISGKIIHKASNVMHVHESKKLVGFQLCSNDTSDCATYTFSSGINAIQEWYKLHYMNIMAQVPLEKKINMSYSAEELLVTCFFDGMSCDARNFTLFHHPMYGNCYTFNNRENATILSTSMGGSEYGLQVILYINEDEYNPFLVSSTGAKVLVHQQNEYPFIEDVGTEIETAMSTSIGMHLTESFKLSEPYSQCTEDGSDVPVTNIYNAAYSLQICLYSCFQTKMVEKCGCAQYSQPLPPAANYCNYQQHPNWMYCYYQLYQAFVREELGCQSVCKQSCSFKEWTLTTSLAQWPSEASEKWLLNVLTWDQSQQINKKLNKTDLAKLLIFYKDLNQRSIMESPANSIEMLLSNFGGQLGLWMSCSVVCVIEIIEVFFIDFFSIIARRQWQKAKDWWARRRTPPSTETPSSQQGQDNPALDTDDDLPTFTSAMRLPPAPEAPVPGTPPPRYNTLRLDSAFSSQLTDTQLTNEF
Assay: Ussing chamber: inhibition of amiloride sensitive short circuit current (I_sc) in M-1 cells
Type: cell-based
Conditions: mouse kidney M-1 cells
Description: Mouse kidney M-1 cells were cultivated in DMEM containing 5% FCS and 5 μM dexamethasone for 10 to 12 days on polyester transwell filters. Filters were inserted into a teflon-coated well-plate which fit into the in-house ussing chamber system. Prior to measurement the medium of M-1 cells was replaced with Caco-2 transport buffer (Invitrogen, Germany). During measurements, the Ussing chamber temperature was kept at 37° C. Short circuit currents (I_sc) were measured in the voltage-clamp mode using an in-house built amplifier (Boehringer Ingelheim, Biberach) with the software package Lab View for data acquisition and analysis. The transepithelial electrical resistance (TEER) was determined by the application of voltage steps of ±5 mV every 5 sec. Compounds were administered at a final concentration of 3 μM or at increasing concentrations (1-3-10 μM) to the apical solution. At the end of each experiment the amiloride sensitive I_SC was measured by adding 3 μM amiloride to the apical compartment. Results are expressed as inhibition in percent of the amiloride effect or as IC50. With the example compounds given above, the following IC50 values were determined in the Ussing Chamber assay: […]

Q: With NC(=NC(=O)c1nc(Cl)c(N)nc1N)NC1CCN(Cc2ccc(OCc3cn(CCOCCOCCOCCO)nn3)cc2)CC1 [Example 3.21] as the compound, how does the IC50 read?
A: 12 nM

Q: Which IC50 does the source give for [N-]=[N+]=NCCOCCOCCOCCn1cc(COc2ccc(CN3CCC(NC(N)=NC(=O)c4nc(Cl)c(N)nc4N)CC3)cc2)nn1 [Example 3.22] here?
A: 2 nM

Q: How did the IC50 turn out when NC(=NC(=O)c1nc(Cl)c(N)nc1N)NC1CCN(Cc2ccc(OCc3cn(CCOCCOCCOCCOCCOCCOC(c4ccccc4)(c4ccccc4)c4ccccc4)nn3)cc2)CC1 [Example 3.23] was run?
A: 13 nM

Q: Which IC50 does the source give for NC(=NC(=O)c1nc(Cl)c(N)nc1N)NC1CCN(Cc2ccc(OCc3cn(CCOCCOCCO)nn3)cc2)CC1 [Example 3.24] here?
A: 25 nM

Q: With NC(=NC(=O)c1nc(Cl)c(N)nc1N)NC1CCN(Cc2ccc(-c3cn(CCOCCOCCOCCO)nn3)cc2)CC1 [Example 3.26] as the compound, how does the IC50 read?
A: 8 nM

Q: NC(=NC(=O)c1nc(Cl)c(N)nc1N)NC1CCN(Cc2ccc(-c3cn(CCOCCOCCOCCOCCOCCO)nn3)cc2)CC1 [Example 3.27] was tested. Which IC50 did it give?
A: 1 nM

Q: Which IC50 does the source give for NC(=NC(=O)c1nc(Cl)c(N)nc1N)NC1CCN(Cc2ccc(-c3cn(CCOCCOCCOC(c4ccccc4)(c4ccccc4)c4ccccc4)nn3)cc2)CC1 [Example 3.28] here?
A: 6 nM

Q: NC(=NC(=O)c1nc(Cl)c(N)nc1N)NC1CCN(Cc2ccc(-c3cn(CCOCCOCCOCCOCCOCCOCCOCCO)nn3)cc2)CC1 [Example 3.29] was tested. Which IC50 did it give?
A: 12 nM

Q: For NC(=NC(=O)c1nc(Cl)c(N)nc1N)NC1CCN(Cc2ccc(-c3cn(CCOCCOC(c4ccccc4)(c4ccccc4)c4ccccc4)nn3)cc2)CC1 [Example 3.30], which IC50 is on record?
A: 1 nM

Q: How did the IC50 turn out when NC(=NC(=O)c1nc(Cl)c(N)nc1N)NC1CCN(Cc2ccc(-c3cn(CCOCCOCCOCCNC(=O)c4cc(OCCOCCOCCOCCOC(c5ccccc5)(c5ccccc5)c5ccccc5)cc(OCCOCCOCCOCCOC(c5ccccc5)(c5ccccc5)c5ccccc5)c4)nn3)cc2)CC1 [Example 3.31] was run?
A: 49 nM

Q: With [N-]=[N+]=NCCOCCOCCOCCn1cc(-c2ccc(CN3CCC(NC(N)=NC(=O)c4nc(Cl)c(N)nc4N)CC3)cc2)nn1 [Example 3.32] as the compound, how does the IC50 read?
A: 25 nM

Q: How did the IC50 turn out when NC(=NC(=O)c1nc(Cl)c(N)nc1N)NC1CCN(Cc2ccc(-c3cn(CCOCCOCCOCCNCCOCCOCCO)nn3)cc2)CC1 [Example 3.35] was run?
A: 4 nM

Q: How did the IC50 turn out when NC(=NC(=O)c1nc(Cl)c(N)nc1N)NC1CCN(Cc2cccc(-c3cn(CCOCCOCCOCCO)nn3)c2)CC1 [Example 3.36] was run?
A: 4 nM

Q: How did the IC50 turn out when NC(=NC(=O)c1nc(Cl)c(N)nc1N)NC1CCN(Cc2cccc(-c3cn(CCOCCOCCOCCOCCOCCOC(c4ccccc4)(c4ccccc4)c4ccccc4)nn3)c2)CC1 [Example 3.37] was run?
A: 9 nM

Q: For CC[N+](CC)(CC)Cc1ccc(CCn2cc(-c3cccc(CN4CCC(NC(N)=NC(=O)c5nc(Cl)c(N)nc5N)CC4)c3)nn2)cc1 [Example 3.38], which IC50 is on record?
A: 1 nM

Q: NC(=NC(=O)c1nc(Cl)c(N)nc1N)NC1CCN(Cc2cccc(-c3cn(CCOCCOCCOCCNCCOCCOCCOC(c4ccccc4)(c4ccccc4)c4ccccc4)nn3)c2)CC1 [Example 3.40] was tested. Which IC50 did it give?
A: 1 nM

Q: For NC(=NC(=O)c1nc(Cl)c(N)nc1N)NC1CCN(Cc2ccc(C(=O)OCCCCc3cn(CCOCCOCCOCCO)nn3)cc2)CC1 [Example 3.42], which IC50 is on record?
A: 10 nM

Q: With NC(=NC(=O)c1nc(Cl)c(N)nc1N)NC1CCN(Cc2ccc(CCn3cc(CCC(=O)N4CCOCC4)nn3)cc2)CC1 [Example 3.43] as the compound, how does the IC50 read?
A: 15 nM

Q: With CC(=O)N1CCN(C(=O)CCc2cn(CCc3ccc(CN4CCC(NC(N)=NC(=O)c5nc(Cl)c(N)nc5N)CC4)cc3)nn2)CC1 [Example 3.44] as the compound, how does the IC50 read?
A: 16 nM

Q: For CN(Cc1cn(CCc2ccc(CN3CCC(N/C(N)=N/C(=O)c4nc(Cl)c(N)nc4N)CC3)cc2)nn1)C(=O)CCN [Example 4.1], which IC50 is on record?
A: 9 nM

Q: CN(Cc1cn(-c2ccc(CN3CCC(NC(N)=NC(=O)c4nc(Cl)c(N)nc4N)CC3)cc2)nn1)C(=O)CCN [Example 4.2] was tested. Which IC50 did it give?
A: 4 nM

Q: How did the IC50 turn out when N/C(=N\C(=O)c1nc(Cl)c(N)nc1N)NC1CCN(Cc2ccc(OCc3cn(CCOCCOCCOCCOCCOCCO)nn3)cc2)CC1 [Example 5.1] was run?
A: 42 nM

Q: CN(Cc1cn(CCc2ccc(CN3CCC(NC(N)=NC(=O)c4nc(Cl)c(N)nc4N)CC3)cc2)nn1)C(=O)CCNCCOCCOCCOCCO [Example 5.2] was tested. Which IC50 did it give?
A: 14 nM

Q: For CN(Cc1cn(-c2ccc(CN3CCC(NC(N)=NC(=O)c4nc(Cl)c(N)nc4N)CC3)cc2)nn1)C(=O)CCNCCOCCOCCOCCO [Example 5.3], which IC50 is on record?
A: 2 nM

Q: For N/C(=N\C(=O)c1nc(Cl)c(N)nc1N)NC1CCN(Cc2ccc(-c3cn(CCOCCOCCO)nn3)cc2)CC1 [Example 5.4], which IC50 is on record?
A: 3 nM

Q: NC(=NC(=O)c1nc(Cl)c(N)nc1N)NC1CCN(Cc2ccc(-c3cn(CCOCCOCCOCCNC(=O)c4cc(OCCOCCOCCOCCO)cc(OCCOCCOCCOCCO)c4)nn3)cc2)CC1 [Example 5.5] was tested. Which IC50 did it give?
A: 109 nM

Q: How did the IC50 turn out when NC(=NC(=O)c1nc(Cl)c(N)nc1N)NC1CCN(Cc2ccc(-c3cn(CCOCCO)nn3)cc2)CC1 [Example 5.6] was run?
A: 3 nM

Q: Which IC50 does the source give for NC(=NC(=O)c1nc(Cl)c(N)nc1N)NC1CCN(Cc2ccc(-c3cn(CCOCCOCCOCCNC(=O)c4cc(OCCOCCOCCO)cc(OCCOCCOCCO)c4)nn3)cc2)CC1 [Example 5.7] here?
A: 45 nM

Q: For NC(=NC(=O)c1nc(Cl)c(N)nc1N)NC1CCN(Cc2ccc(OCc3cn(CCOCCOCCOCCNC(=O)c4cc(OCCOCCOCCO)cc(OCCOCCOCCO)c4)nn3)cc2)CC1 [Example 5.8], which IC50 is on record?
A: 52 nM

Q: NC(=NC(=O)c1nc(Cl)c(N)nc1N)NC1CCN(Cc2cccc(-c3cn(CCOCCOCCOCCOCCOCCO)nn3)c2)CC1 [Example 5.9] was tested. Which IC50 did it give?
A: 10 nM

Q: NC(=NC(=O)c1nc(Cl)c(N)nc1N)NC1CCN(Cc2cccc(-c3cn(CCOCCOCCOCCNC(=O)c4cc(OCCOCCOCCO)cc(OCCOCCOCCO)c4)nn3)c2)CC1 [Example 5.10] was tested. Which IC50 did it give?
A: 31 nM

Q: Which IC50 does the source give for NC(=NC(=O)c1nc(Cl)c(N)nc1N)NC1CCN(Cc2cccc(-c3cn(CCOCCOCCOCCNCCOCCOCCO)nn3)c2)CC1 [Example 5.11] here?
A: 7 nM

Q: With NC(=NC(=O)c1nc(Cl)c(N)nc1N)NC1CCN(Cc2cccc(-c3cn(CCOCCOCCOCCNC(=O)c4cc(OCCOCCOCCOCCO)cc(OCCOCCOCCOCCO)c4)nn3)c2)CC1 [Example 5.12] as the compound, how does the IC50 read?
A: 62 nM

Q: Which IC50 does the source give for N/C(=N\C(=O)c1nc(Cl)c(N)nc1N)NC1CCN(Cc2ccc(CP(=O)(O)O)cc2)CC1 [Example 7.1] here?
A: 477 nM

Q: Which IC50 does the source give for N/C(=N\C(=O)c1nc(Cl)c(N)nc1N)NC1CCN(C(C(=O)O)c2ccccc2)CC1 (stereo not drawn) [Example 8.1] here?
A: 136 nM

Q: How did the IC50 turn out when NC(=NC(=O)c1nc(Cl)c(N)nc1N)NC1CCN(Cc2ccc(-n3cc(C(=O)O)ccc3=O)cc2)CC1 [Example 8.4] was run?
A: 210 nM
